Data set [1] is classed as in vitro ADME, rat. To be noted: room temperature (25 °C for 24 h), sampler 4 °C for 24 h, three freeze-thaw cycles (−20 °C to 25 °C), −80 °C for 14 days.
The conditions of data set [2]: SD rats, oral 15 mg/kg; cited from earlier work.
For data set [3] the following is noted: healthy volunteers, cited from earlier work.
The conditions of data set [4]: mice, rats, and dogs; ref a previous article; cited from earlier work.
The format of data set [5] is in vivo, Sprague-Dawley rats. The settings on record: rat plasma.
The nature of data set [6]: in vivo. To be noted: rat. Further details: species or system Sprague-Dawley rats.
Setting [7] is: oral 30 mg/kg, 4 h after administration.

Like-named read-outs stand apart in the source and are kept apart here.

A word on the Cmax: it is the peak of the concentration-time curve.

`C=C(F)C(=O)N1CCN(c2nc(OC[C@@H]3CCCN3C)nc3c2CCN(c2cccc4cccc(Cl)c24)C3)C[C@@H]1CC#N` [Adagrasib]: the “stability in plasma samples and homogenate” value in data set [1] is “stable”. In addition, in data set [2], the Cmax is listed as 122.3 ng/mL, the t1/2 is given as 10.13 h and the tmax is on record as 6 h. Besides, the tmax in data set [3] (multiple-dose administration) is 2.96 h. Moreover, the tmax in data set [3] (recommended dose of 600 mg) is on record as 4.17 h. Besides, the tmax in data set [4] is 4 to 6 h. For the same compound, the “presence in plasma after intravenous administration” value in data set [5] (10 h after intravenous administration) is “disappeared completely from the plasma”. Besides, in data set [5] (24h after single oral administration), the “plasma concentration at 24 h” value is “very low plasma concentration”. The same compound came in with a concentration at 2 h in data set [6] (male, Sprague-Dawley, in vivo, po, 30 mg/kg) of 5050 ± 676 ng/g. Moreover, the presence in testis entry in data set [6] (oral 30 mg/kg) was “not found”. Also, in data set [6] (setting [7]), the “highest concentration in heart” value was 70.49 ± 32.73 ng/g, the “highest concentration in kidney” value was 1787.02 ± 364.44 ng/g, the “highest concentration in lung” value was 3897.76 ± 217.27 ng/g and the “highest concentration in pancreas” value worked out at 648.72 ± 305.97 ng/g. The “highest concentration in spleen” value in data set [6] (oral 30 mg/kg, 8 h after administration) was found to be 3891.80 ± 699.19 ng/g. For the same compound, in data set [6] (oral 30 mg/kg, 24 hours after administration), the “detectability in the organs (except intestine) at 24 hours” value is “still detectable”.

These data come from paper PMC10775801 (Drug Design, Development and Therapy, 2024).
